Broadly, the IC50 is the concentration at which inhibition is half-maximal.

One test relates to A549. The test is described as follows: Cytotoxicity against human A549 cells by MTT assay. The format is functional, cell-based. In general terms: Tetrazolium assays rely on reduction of a dye to a coloured formazan, in cell work by metabolically active cells.
Another test deals with P388. The test can be described thus: Cytotoxicity against mouse P388 cells by MTT assay. The class given is functional, cell-based.
A further test has as its system Klebsiella aerogenes. The test can be described thus: Antimicrobial activity against Enterobacter aerogenes ATCC 13048 at 100 ug/disk. The class given is functional, organism-based.
The next test relates to Salmonella enteritidis. The test can be described thus: Antimicrobial activity against Salmonella enteritidis ATCC 13076 at 100 ug/disk. The format is functional, organism-based. To be noted: Salmonella enterica subsp. enterica serovar Enteritidis.
Another test has as its system Serratia marcescens. The test can be described thus: Antimicrobial activity against Serratia marcescens ATCC 25419 at 100 ug/disk. The class given is functional, organism-based.
Another test concerns Shigella sonnei. The test can be described thus: Antimicrobial activity against Shigella sonnei ATCC 11060 at 100 ug/disk. The class given is functional, organism-based.
For another test, the system named is Yersinia enterocolitica. The test is described as follows: Antimicrobial activity against Yersinia enterocolitica ATCC 23715 at 100 ug/disk. The format is functional, organism-based.
The test system of a further test is Human betaherpesvirus 5. The test can be described thus: Antiviral activity against HCMV infected in HEL cells assessed as reduction of virus plaque formation. As to conditions: Human betaherpesvirus 5, HEL. The class given is functional, organism-based.
In another test the test system is RAW264.7. The test is described as follows: Antiinflammatory activity in mouse RAW264.7 cells assessed as iNOS protein expression level at 10 uM. The class given is functional.

Molecules are shown by their SMILES. The source made the active and inactive calls. The rule behind the calls is not given here.

`C=C(CCC=C(C)C)[C@@H]1CC/C(C)=C/CCC(=C)[C@@H](O)C1`: the inhibition result in the test with A549, in the test on P388, with Klebsiella aerogenes, in the test with Salmonella enteritidis, in the test with Serratia marcescens and in the test on Shigella sonnei was “inactive” in each case. For the same compound, the inhibition result in the test on Yersinia enterocolitica was “inactive”.
For the compound `C=C(CCC=C(C)C)[C@H]1CC[C@@]2(C)[C@H](C1)C(C)=CC[C@@H]2O` [GYROSANOL A], the inhibition entry in the test on A549, in the test on P388, in the test with Klebsiella aerogenes, in the test with Salmonella enteritidis, with Serratia marcescens and in the test with Shigella sonnei was “inactive” throughout. The inhibition result in the test on Yersinia enterocolitica was “inactive”. Moreover, the concentration for half-maximal inhibition (IC50) in the test with Human betaherpesvirus 5 was 2.6 µM. Moreover, the Activity in the test on RAW264.7 came out at 118.5%.

The values are drawn from ChEMBL document CHEMBL1165984, “Antiviral and anti-inflammatory diterpenoids from the soft coral Sinularia gyrosa” (J Nat Prod, 2010).
